Measurements from patent US8759334B2, “Compounds useful for the treatment of metabolic and inflammatory diseases” (Galapagos NV, priority 2011, dated 2014).

Key:
GPR43 [1] = molecular target: T1, GPR43 (Homo sapiens, UniProt O15552); assay: Calcium mobilization assay without probenecid; assay type: cell-based; conditions: GPR43 stably expressing cells, triggered with sodium acetate at EC80, read-out: GPR43 assay without probenicid IC50
T1 construct: expressed in transfected cells
T1 sequence (O15552 1-330): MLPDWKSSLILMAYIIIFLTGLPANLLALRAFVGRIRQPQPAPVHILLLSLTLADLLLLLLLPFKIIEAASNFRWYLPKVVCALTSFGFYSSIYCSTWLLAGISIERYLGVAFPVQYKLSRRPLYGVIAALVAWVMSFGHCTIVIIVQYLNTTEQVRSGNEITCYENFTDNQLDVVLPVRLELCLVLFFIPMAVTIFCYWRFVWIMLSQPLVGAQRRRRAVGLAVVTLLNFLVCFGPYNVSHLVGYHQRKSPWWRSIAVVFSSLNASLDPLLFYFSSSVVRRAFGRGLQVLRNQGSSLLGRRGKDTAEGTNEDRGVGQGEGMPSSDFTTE
Method in brief: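 In GPR43-expressing cells loaded with a Calcium 4 dye, antagonism was tested by a 15 min compound preincubation at 37 °C, then a sodium acetate challenge at EC80, with Ca-flux read on injection. For agonism, Ca-flux was recorded directly on compound injection.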

GPR43 [2] = molecular target: T1, GPR43; assay: Calcium mobilization assay with probenecid; assay type: cell-based; conditions: GPR43 stably expressing cells; triggered with sodium acetate at EC80; 2.5 mM probenecid; read-out: GPR43 assay with probenicid IC50
Method in brief: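 Cells stably expressing GPR43 plated overnight at 37 °C, then loaded 2 h with Calcium 4 dye plus 2.5 mM probenecid. […]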

Cc1cc(C)cc(CC(=O)N2CCC2(C)C(=O)N(CC(=O)NC(C)C)Cc2ccc(Cl)cc2)c1 (stereo not shown) [Compound 80, 1-[2-(3,5-Dimethyl-phenyl)-acetyl]-2-methyl-azetidine-2-carboxylic acid (4-chloro-benzyl)-(isopropylcarbamoyl-methyl)-amide]
IC50 (GPR43 [1]): > 1000 nM
IC50 (GPR43 [2]): > 1000 nM

Cc1cc(C)cc(CC(=O)N2CCC2(C)C(=O)N(CCC(N)=O)Cc2ccc(Cl)cc2)c1 (stereo not shown) [Compound 71, 1-[2-(3,5-Dimethyl-phenyl)-acetyl]-2-methyl-azetidine-2-carboxylic acid (2-carbamoyl-ethyl)-(4-chloro-benzyl)-amide]
IC50 (GPR43 [1]): > 1000 nM
IC50 (GPR43 [2]): 501 to 1000 nM

Cc1cc(C)cc(CC(=O)N2CCC2(C)C(=O)N(C)Cc2ccc(Cl)c(F)c2)c1 (stereo not shown) [Compound 42, 1-[2-(3,5-Dimethyl-phenyl)-acetyl]-2-methyl-azetidine-2-carboxylic acid (4-chloro-3-fluoro-benzyl)-methyl-amide]
IC50 (GPR43 [1]): > 1000 nM
IC50 (GPR43 [2]): > 1000 nM

CC1(C(=O)NCc2ccc(C(F)(F)F)cc2)CCN1C(=O)Cc1ccc(Cl)cc1Cl (stereo not shown) [Compound 44, 1-[2-(2,4-Dichloro-phenyl)-acetyl]-2-methyl-azetidine-2-carboxylic acid 4-trifluoromethyl-benzylamide]
IC50 (GPR43 [1]): > 1000 nM
IC50 (GPR43 [2]): > 1000 nM

CC1(C(=O)N(CC(=O)O)Cc2cccc(Cl)c2)CCN1C(=O)Cc1csc2ccccc12 (stereo not shown) [Compound 66, [[1-(2-Benzo[b]thiophen-3-yl-acetyl)-2-methyl-azetidine-2-carbonyl]-(3-chloro-benzyl)-amino]-acetic acid]
IC50 (GPR43 [1]): 101 to 500 nM
IC50 (GPR43 [2]): 501 to 1000 nM

Cc1cccc(CN(CC(=O)O)C(=O)C2(C)CCN2C(=O)Cc2csc3ccccc23)c1 (stereo not shown) [Compound 69, [[1-(2-Benzo[b]thiophen-3-yl-acetyl)-2-methyl-azetidine-2-carbonyl]-(3-methyl-benzyl)-amino]-acetic acid]
IC50 (GPR43 [1]): > 1000 nM
IC50 (GPR43 [2]): 501 to 1000 nM

CC1(C(=O)N(CC(=O)O)Cc2ccc(Cl)cc2)CCN1C(=O)Cc1coc2ccccc12 (stereo not shown) [Compound 78, [[1-(2-Benzofuran-3-yl-acetyl)-2-methyl-azetidine-2-carbonyl]-(4-chloro-benzyl)-amino]-acetic acid]
IC50 (GPR43 [1]): 101 to 500 nM
IC50 (GPR43 [2]): 101 to 500 nM

CN(Cc1ccc(Cl)cc1)C(=O)C1(C)CCN1C(=O)Cc1ccc(-c2ccc(C#N)cc2)cc1 (stereo not shown) [Compound 24, 1-[2-(4′-Cyano-biphenyl-4-yl)-acetyl]-2-methyl-azetidine-2-carboxylic acid (4-chloro-benzyl)-methyl-amide]
IC50 (GPR43 [1]): > 1000 nM
IC50 (GPR43 [2]): > 1000 nM

CC1(C(=O)N(CCC(=O)O)Cc2ccc(Cl)cc2)CCN1C(=O)Cc1csc2ccccc12 (stereo not shown) [Compound 88, 3-[[1-(2-Benzo[b]thiophen-3-yl-acetyl)-2-methyl-azetidine-2-carbonyl]-(4-chloro-benzyl)-amino]-propionic acid]
IC50 (GPR43 [1]): 101 to 500 nM
IC50 (GPR43 [2]): 101 to 500 nM

Cc1cccc(CNC(=O)C2(C)CCN2C(=O)Cc2ccc(Cl)cc2Cl)c1 (stereo not shown) [Compound 51, 1-[2-(2,4-Dichloro-phenyl)-acetyl]-2-methyl-azetidine-2-carboxylic acid 3-methyl-benzylamide]
IC50 (GPR43 [1]): > 1000 nM
IC50 (GPR43 [2]): > 1000 nM

CC(=O)NCCN(Cc1ccc(Cl)cc1)C(=O)C1(C)CCN1C(=O)Cc1cc(C)cc(C)c1 (stereo not shown) [Compound 101, 1-[2-(3,5-Dimethyl-phenyl)-acetyl]-2-methyl-azetidine-2-carboxylic acid (2-acetylamino-ethyl)-(4-chloro-benzyl)-amide]
IC50 (GPR43 [1]): 101 to 500 nM
IC50 (GPR43 [2]): 101 to 500 nM

CC1(C(=O)NCc2ccc(Cl)cc2)CCN1C(=O)Oc1ccc(Cl)cc1 (stereo not shown) [Compound 2, 2-(4-Chloro-benzylcarbamoyl)-2-methyl-azetidine-1-carboxylic acid 4-chloro-phenyl ester]
IC50 (GPR43 [1]): > 1000 nM
IC50 (GPR43 [2]): > 1000 nM

CN(Cc1ccc(Cl)cc1)C(=O)C1(C)CCN1C(=O)Cc1ccccc1I (stereo not shown) [Compound 17, 1-[2-(2-Iodo-phenyl)-acetyl]-2-methyl-azetidine-2-carboxylic acid (4-chloro-benzyl)-methyl-amide]
IC50 (GPR43 [1]): > 1000 nM
IC50 (GPR43 [2]): > 1000 nM

CC1(C(=O)NCc2ccc(Cl)cc2)CCN1C(=O)Cc1csc2ccccc12 (stereo not shown) [Compound 57, 1-(2-Benzo[b]thiophen-3-yl-acetyl)-2-methyl-azetidine-2-carboxylic acid 4-chloro-benzylamide]
IC50 (GPR43 [1]): > 1000 nM
IC50 (GPR43 [2]): > 1000 nM

COC(=O)CCN(Cc1ccc(Cl)cc1)C(=O)C1(C)CCN1C(=O)Cc1csc2ccccc12 (stereo not shown) [Compound 86, 3-[[1-(2-Benzo[b]thiophen-3-yl-acetyl)-2-methyl-azetidine-2-carbonyl]-(4-chloro-benzyl)-amino]-propionic acid methyl ester]
IC50 (GPR43 [1]): 101 to 500 nM
IC50 (GPR43 [2]): 0.01 to 100 nM

Cc1cc(C)cc(CC(=O)N2CCC2(C)C(=O)N(CC(=O)N2CCOCC2)Cc2ccc(Cl)cc2)c1 (stereo not shown) [Compound 83, 1-[2-(3,5-Dimethyl-phenyl)-acetyl]-2-methyl-azetidine-2-carboxylic acid (4-chloro-benzyl)-(2-morpholin-4-yl-2-oxo-ethyl)-amide]
IC50 (GPR43 [1]): > 1000 nM
IC50 (GPR43 [2]): > 1000 nM

Cc1cc(C)cc(CC(=O)N2CCC2(C)C(=O)N(CC(=O)O)Cc2ccc(Cl)cc2)c1 (stereo not shown) [Compound 49, ((4-Chloro-benzyl)-{1-[2-(3,5-dimethyl-phenyl)-acetyl]-2-methyl-azetidine-2-carbonyl}-amino)-acetic acid]
IC50 (GPR43 [1]): 101 to 500 nM
IC50 (GPR43 [2]): 101 to 500 nM

CCN(Cc1ccc(Cl)cc1)C(=O)C1(C)CCN1C(=O)Cc1cc(C)cc(C)c1 (stereo not shown) [Compound 35, 1-[2-(3,5-Dimethyl-phenyl)-acetyl]-2-methyl-azetidine-2-carboxylic acid (4-chloro-benzyl)-ethyl-amide]
IC50 (GPR43 [1]): 101 to 500 nM
IC50 (GPR43 [2]): 101 to 500 nM

Cc1cc(C)cc(CC(=O)N2CCC2(C)C(=O)N(C)Cc2ccc(C(C)(C)C)cc2)c1 (stereo not shown) [Compound 32, 1-[2-(3,5-Dimethyl-phenyl)-acetyl]-2-methyl-azetidine-2-carboxylic acid (4-tert-butyl-benzyl)-methyl-amide]
IC50 (GPR43 [1]): > 1000 nM
IC50 (GPR43 [2]): > 1000 nM

Cc1cc(C)cc(CC(=O)N2CCC2(C)C(=O)N(Cc2ccc(Cl)cc2)C2CC2)c1 (stereo not shown) [Compound 46, 1-[2-(3,5-Dimethyl-phenyl)-acetyl]-2-methyl-azetidine-2-carboxylic acid (4-chloro-benzyl)-cyclopropyl-amide]
IC50 (GPR43 [1]): > 1000 nM
IC50 (GPR43 [2]): > 1000 nM

Cc1cc(C)cc(CC(=O)N2CCC2(C)C(=O)N(CC#N)Cc2ccc(Cl)cc2)c1 (stereo not shown) [Compound 68, 1-[2-(3,5-dimethyl-phenyl)-acetyl]-2-methyl-azetidine-2-carboxylic acid (4-chloro-benzyl)-cyanomethyl-amide]
IC50 (GPR43 [1]): 101 to 500 nM
IC50 (GPR43 [2]): 101 to 500 nM

Cc1cc(C)cc(CC(=O)N2CCC2(C)C(=O)N(C)Cc2ccc(CC(C)C)cc2)c1 (stereo not shown) [Compound 34, 1-[2-(3,5-Dimethyl-phenyl)-acetyl]-2-methyl-azetidine-2-carboxylic acid (4-isobutyl-benzyl)-methyl-amide]
IC50 (GPR43 [1]): > 1000 nM
IC50 (GPR43 [2]): > 1000 nM

CN(Cc1ccc(Cl)cc1)C(=O)C1(C)CCN1C(=O)c1csc2ccccc12 (stereo not shown) [Compound 98, 1-(Benzo[b]thiophene-3-carbonyl)-2-methyl-azetidine-2-carboxylic acid (4-chloro-benzyl)-methyl-amide]
IC50 (GPR43 [1]): 101 to 500 nM
IC50 (GPR43 [2]): 101 to 500 nM

CN(Cc1ccc(Cl)cc1)C(=O)C1(C)CCN1C(=O)Cc1cccc(-c2ccccc2C(F)(F)F)c1 (stereo not shown) [Compound 28, 2-Methyl-1-[2-(2′-trifluoromethyl-biphenyl-3-yl)-acetyl]-azetidine-2-carboxylic acid (4-chloro-benzyl)-methyl-amide]
IC50 (GPR43 [1]): > 1000 nM
IC50 (GPR43 [2]): > 1000 nM

CN(Cc1ccc(Cl)cc1)C(=O)C1(C)CCN1C(=O)Cc1ccc(-c2cccc(Cl)c2)cc1 (stereo not shown) [Compound 21, 1-[2-(3′-Chloro-biphenyl-4-yl)-acetyl]-2-methyl-azetidine-2-carboxylic acid (4-chloro-benzyl)-methyl-amide]
IC50 (GPR43 [1]): > 1000 nM
IC50 (GPR43 [2]): > 1000 nM

COC(=O)CN(Cc1ccc(Cl)cc1)C(=O)C1(C)CCN1C(=O)Cc1cc(C)cc(C)c1 (stereo not shown) [Compound 48, ((4-Chloro-benzyl)-{1-[2-(3,5-dimethyl-phenyl)-acetyl]-2-methyl-azetidine-2-carbonyl}-amino)-acetic acid methyl ester]
IC50 (GPR43 [1]): 501 to 1000 nM
IC50 (GPR43 [2]): 501 to 1000 nM

Cc1cc(C)cc(CC(=O)N2CCC2(C)C(=O)N(C)Cc2ccc(C(F)(F)F)cc2)c1 (stereo not shown) [Compound 7, 1-[2-(3,5-Dimethyl-phenyl)-acetyl]-2-methyl-azetidine-2-carboxylic acid methyl-(4-trifluoromethyl-benzyl)-amide]
IC50 (GPR43 [1]): 101 to 500 nM
IC50 (GPR43 [2]): 101 to 500 nM

COc1cccc(-c2ccc(CC(=O)N3CCC3(C)C(=O)N(C)Cc3ccc(Cl)cc3)cc2)c1 (stereo not shown) [Compound 38, 1-[2-(3′-Methoxy-biphenyl-4-yl)-acetyl]-2-methyl-azetidine-2-carboxylic acid (4-chloro-benzyl)-methyl-amide]
IC50 (GPR43 [1]): > 1000 nM
IC50 (GPR43 [2]): > 1000 nM

CCOC(=O)CN(Cc1ccc(Cl)cc1)C(=O)C1(C)CCN1C(=O)Cc1csc2ccccc12 (stereo not shown) [Compound 58, [[1-(2-Benzo[b]thiophen-3-yl-acetyl)-2-methyl-azetidine-2-carbonyl]-(4-chloro-benzyl)-amino]-acetic acid ethyl ester]
IC50 (GPR43 [1]): 101 to 500 nM
IC50 (GPR43 [2]): 101 to 500 nM
